Laboratory results reported in the NIST ThermoML archive (doi:10.1021/je5002126).

How the values were obtained:
[1] = refractive index (Na D-line) (dimensionless); xn = mol fraction of the nth substance listed; details: 101 kPa, Liquid, Standard Abbe refractometry
[2] = xn = mol fraction of the nth substance listed; details: for electrical conductivity / viscosity / mass density: 101 kPa, Liquid; for electrical conductivity: Alternating current cell with electrodes; for viscosity: Concentric cylinders viscometry; for mass density: Vibrating tube method; for surface tension liquid-gas: Ring tensiometer

CCCC[N+](CCCC)(CCCC)CCCC.[Cl-] [tetrabutylammonium chloride] + OCCOCCOCCO
Details | electrical conductivity, [2] [S/m] | mass density, [2] [kg/m3] | refractive index, [1] | surface tension liquid-gas, [2] [mN/m] | viscosity, [2] [mPa·s]
293.15 K, x1 = 0.5 | 0.0139 | 1027 | 1.48 | – | 870
293.15 K, x1 = 0.667 | 0.00681 | 1007 | 1.4851 | – | –
293.15 K, x1 = 0.75 | 0.00221 | 996 | 1.4858 | – | –
293.15 K, x1 = 0.8 | 0.00178 | 990 | 1.4871 | – | –
303.15 K, x1 = 0.5 | 0.0228 | 1021 | 1.4772 | 40.6 | 543.8
303.15 K, x1 = 0.667 | 0.0149 | 1001 | 1.4821 | 40.1 | 1399
303.15 K, x1 = 0.75 | 0.005 | 990 | 1.4836 | 39.3 | –
303.15 K, x1 = 0.8 | 0.0047 | 985 | 1.4841 | 40 | 3265.3
313.15 K, x1 = 0.5 | 0.0376 | 1015 | 1.4742 | 39.5 | 289.4
313.15 K, x1 = 0.667 | 0.0284 | 995 | 1.479 | 38.6 | 952.2
313.15 K, x1 = 0.75 | 0.0097 | 984 | 1.4806 | 38.3 | 7031.7
313.15 K, x1 = 0.8 | 0.0108 | 980 | 1.4811 | 38.4 | 1900.4
323.15 K, x1 = 0.5 | 0.055 | 1009 | 1.4711 | 38.8 | 166.4
323.15 K, x1 = 0.667 | 0.0458 | 989 | 1.476 | 38 | 493
323.15 K, x1 = 0.75 | 0.0154 | 978 | 1.4777 | 37.2 | 909.1
323.15 K, x1 = 0.8 | 0.0214 | 973 | 1.4781 | 37.3 | 862.9
333.15 K, x1 = 0.5 | 0.0805 | 1003 | 1.4678 | 38.2 | 100.8
333.15 K, x1 = 0.667 | 0.0676 | 983 | 1.4731 | 37.4 | 264.1
333.15 K, x1 = 0.75 | 0.0217 | 972 | 1.4747 | 36.6 | 452.1
333.15 K, x1 = 0.8 | 0.0252 | 968 | 1.4752 | 36.5 | 411.2
343.15 K, x1 = 0.5 | 0.11 | 997 | 1.4646 | 37.6 | 68.1
343.15 K, x1 = 0.667 | 0.0842 | 976 | 1.4701 | 36.4 | 154
343.15 K, x1 = 0.75 | 0.0282 | 966 | 1.4717 | 35.7 | 244.7
343.15 K, x1 = 0.8 | 0.0262 | 961 | 1.4722 | 35.6 | 204.5
353.15 K, x1 = 0.5 | 0.147 | 991 | 1.4614 | 37 | 44.7
353.15 K, x1 = 0.667 | 0.092 | 970 | 1.4673 | 35.6 | 91.3
353.15 K, x1 = 0.75 | 0.0319 | 960 | 1.4686 | 34.9 | 155.6
353.15 K, x1 = 0.8 | 0.0273 | 955 | 1.4692 | 34.6 | 99.9

CCCC[N+](CCCC)(CCCC)CCCC.[Cl-] [tetrabutylammonium chloride] + OCCO
Details | electrical conductivity, [2] [S/m] | mass density, [2] [kg/m3] | refractive index, [1] | surface tension liquid-gas, [2] [mN/m] | viscosity, [2] [mPa·s]
293.15 K, x1 = 0.2 | 0.000202 | 1145 | 1.4615 | – | 85.33
293.15 K, x1 = 0.25 | 0.000154 | 1130 | 1.4653 | – | 105
293.15 K, x1 = 0.333 | 9.91e-05 | 1105 | 1.4703 | – | 212
303.15 K, x1 = 0.2 | 0.000272 | 1138 | 1.4585 | 40.7 | 56.9
303.15 K, x1 = 0.25 | 0.000214 | 1123 | 1.4619 | 40.1 | 71.9
303.15 K, x1 = 0.333 | 0.000139 | 1099 | 1.4672 | 39.3 | 127
313.15 K, x1 = 0.2 | 0.000354 | 1132 | 1.4554 | 39.9 | 37.16
313.15 K, x1 = 0.25 | 0.000293 | 1117 | 1.4587 | 39.4 | 45.17
313.15 K, x1 = 0.333 | 0.00022 | 1092 | 1.4641 | 38.3 | 76.43
323.15 K, x1 = 0.2 | 0.00045 | 1125 | 1.4523 | 39.1 | 26.27
323.15 K, x1 = 0.25 | 0.000387 | 1110 | 1.4556 | 38.3 | 29.37
323.15 K, x1 = 0.333 | 0.00026 | 1086 | 1.4609 | 37.2 | 49.3
333.15 K, x1 = 0.2 | 0.000521 | 1119 | 1.4491 | 38.3 | 19.7
333.15 K, x1 = 0.25 | 0.000457 | 1104 | 1.4525 | 37.5 | 20.23
333.15 K, x1 = 0.333 | 0.000375 | 1079 | 1.4578 | 36.6 | 33.6
343.15 K, x1 = 0.2 | 0.000615 | 1112 | 1.445 | 37.5 | 14.85
343.15 K, x1 = 0.25 | 0.000567 | 1097 | 1.4495 | 36.8 | 14.53
343.15 K, x1 = 0.333 | 0.000385 | 1073 | 1.4545 | 35.7 | 23.53
353.15 K, x1 = 0.2 | 0.000722 | 1106 | 1.4427 | 36.8 | 10.5
353.15 K, x1 = 0.25 | 0.00062 | 1091 | 1.4469 | 36.1 | 10.7
353.15 K, x1 = 0.333 | 0.000468 | 1067 | 1.4509 | 34.9 | 16

CCCC[N+](CCCC)(CCCC)CCCC.[Cl-] [tetrabutylammonium chloride] + OCC(O)CO
Details | electrical conductivity, [2] [S/m] | mass density, [2] [kg/m3] | refractive index, [1] | surface tension liquid-gas, [2] [mN/m] | viscosity, [2] [mPa·s]
293.15 K, x1 = 0.167 | 0.0162 | 1040 | 1.4781 | – | 1100
293.15 K, x1 = 0.2 | 0.0192 | 1029 | 1.4776 | – | 950
293.15 K, x1 = 0.25 | 0.017 | 1014 | 1.4802 | – | 1170
303.15 K, x1 = 0.167 | 0.0307 | 1034 | 1.4754 | 47.1 | 541.3
303.15 K, x1 = 0.2 | 0.0358 | 1023 | 1.4747 | 46.7 | 476.1
303.15 K, x1 = 0.25 | 0.0309 | 1008 | 1.4774 | 46 | 580
313.15 K, x1 = 0.167 | 0.0492 | 1027 | 1.4726 | 46.2 | 261
313.15 K, x1 = 0.2 | 0.0525 | 1017 | 1.4718 | 45.9 | 225
313.15 K, x1 = 0.25 | 0.0485 | 1001 | 1.4745 | 44.9 | 293.3
323.15 K, x1 = 0.167 | 0.0788 | 1020 | 1.4697 | 45.5 | 137.3
323.15 K, x1 = 0.2 | 0.0863 | 1010 | 1.4687 | 44.9 | 115.7
323.15 K, x1 = 0.25 | 0.0781 | 995 | 1.4716 | 44.1 | 157
333.15 K, x1 = 0.167 | 0.114 | 1014 | 1.4668 | 45 | 78.4
333.15 K, x1 = 0.2 | 0.131 | 1004 | 1.4658 | 44.1 | 64.7
333.15 K, x1 = 0.25 | 0.117 | 988 | 1.4685 | 43.4 | 90.7
343.15 K, x1 = 0.167 | 0.141 | 1007 | 1.4638 | 44.2 | 47.6
343.15 K, x1 = 0.2 | 0.182 | 997 | 1.4626 | 43.5 | 41.9
343.15 K, x1 = 0.25 | 0.151 | 982 | 1.4652 | 42.7 | 56.7
353.15 K, x1 = 0.167 | 0.222 | 1000 | 1.4607 | 43.5 | 32
353.15 K, x1 = 0.2 | 0.264 | 991 | 1.4603 | 42.9 | 25
353.15 K, x1 = 0.25 | 0.24 | 976 | 1.462 | 41.9 | 36.7
